How the values were obtained:
MMP-2 = MMP-2 (Homo sapiens (Human), UniProt P08253); experiment: In vitro fluorescence assay of MMP-2 activity; format: biochemical; conditions: read-out: MMP2 IC50
Text: In Vitro Fluorescence Assay of MMP-2 Activity
(§1) A continuous assay is used in which the substrate is a synthetic peptide containing a fluorescent group (7-methoxycoumarin, Mca), which is quenched by energy transfer to a 2,4-dinitrophenyl group. The substrate is the peptide Mca-PQGL-(3-[2,4-dinitrophenyl]-L-2,3-diaminopropionyl)-AR-OH. When the peptide is cleaved by MMP a large increase in fluorescence is observed. The source of the enzyme for this assay is full-length, recombinant, human pro-MMP-2 expressed in Chinese Hamster Ovary (CHO) cells that is subsequently activated by an organomercurial compound, 4-aminophenyl mercuric acetate (APMA). APMA is removed through a desalting column (MMP-2 Calbiochem® catalog number PF023). The assay buffer consists of 100 mM Tris-HCl (pH 7.5), 100 mM NaCl, 10 mM CaCl2 and 10 μM human serum albumin Each well of the 96-well plates consists of a 100 μL reaction mixture consisting of assay buffer, MMP (final concentration of 0.2 nM, prepared by diluting in assay buffer), and varied concentrations of inhibitor (prepared by serially diluting a given inhibitor in DMSO in a 96-well polypropylene plate using a 10 point or 11 point dilution scheme). The enzymatic reactions are initiated by adding the substrate to a final concentration of 20 μM. The final DMSO concentration in the assay is 1.0%. The plate is incubated for 2-4 hours at room temperature and substrate cleavage is determined at room temperature with a fluorescence plate reader (excitation filter 320 and emission filter 436) on a LJL Analyst® or a Wallac Envision®.
(§2) The data is analyzed by using ActivityBase® software programs vs. 5.3 using a 4 parameter fit model equation 205 from which relative IC50's are generated. Maximum signal is calculated from wells untreated by inhibitor but having enzyme, substrate and 1.0% DMSO. Minimum signal is calculated from wells having buffer only (no enzyme), substrate, and 1.0% DMSO.

MMP13 = MMP13 (Homo sapiens (Human), UniProt P45452); experiment: In vitro fluorescence assay of MMP13 activity; format: biochemical
Method: A continuous assay is used in which the substrate is a synthetic peptide containing a fluorescent group (7-methoxycoumarin, Mca), which is quenched by energy transfer to a 2,4-dinitrophenyl group. The substrate is the peptide Mca-PQGL-(3-[2,4-dinitrophenyl]-L-2,3-diaminopropionyl)-AR-OH. […] APMA is removed through a desalting column (MMP-2 Calbiochem® catalog number PF023). The assay buffer consists of 100 mM Tris-HCl (pH 7.5), 100 mM NaCl, 10 mM CaCl2 and 10 μM human serum albumin Each well of the 96-well plates consists of a 100 μL reaction mixture consisting of assay buffer, MMP (final concentration of 0.2 nM, prepared by diluting in assay buffer), and varied concentrations of inhibitor (prepared by serially diluting a given inhibitor in DMSO in a 96-well polypropylene plate using a 10 point or 11 point dilution scheme). The enzymatic reactions are initiated by adding the substrate to a final concentration of 20 μM. The final DMSO concentration in the assay is 1.0%.
as §2
(§3) Essentially the same procedure is used for the remaining MMP assays as the MMP-2 assay, above, or as known in the art. For example, for MMP-14, the enzyme source is MMP-14 (MT1-MMP) catalytic domain produced by activation of a recombinant soluble proform of the enzyme purified from the periplasm. It consists of amino acid residues Tyr^89 to Gly^265 of mature human MT1-MMP (Calbiochem® catalog number 475935). The final concentration of each well is 0.5 nM instead of 0.2 nM as in MMP-2 assay.

MMP9 = MMP9 (Homo sapiens (Human), UniProt P14780); experiment: In vitro fluorescence assay of MMP9 activity; format: biochemical
Sequence of MMP9 (P14780 94-707, species assumed): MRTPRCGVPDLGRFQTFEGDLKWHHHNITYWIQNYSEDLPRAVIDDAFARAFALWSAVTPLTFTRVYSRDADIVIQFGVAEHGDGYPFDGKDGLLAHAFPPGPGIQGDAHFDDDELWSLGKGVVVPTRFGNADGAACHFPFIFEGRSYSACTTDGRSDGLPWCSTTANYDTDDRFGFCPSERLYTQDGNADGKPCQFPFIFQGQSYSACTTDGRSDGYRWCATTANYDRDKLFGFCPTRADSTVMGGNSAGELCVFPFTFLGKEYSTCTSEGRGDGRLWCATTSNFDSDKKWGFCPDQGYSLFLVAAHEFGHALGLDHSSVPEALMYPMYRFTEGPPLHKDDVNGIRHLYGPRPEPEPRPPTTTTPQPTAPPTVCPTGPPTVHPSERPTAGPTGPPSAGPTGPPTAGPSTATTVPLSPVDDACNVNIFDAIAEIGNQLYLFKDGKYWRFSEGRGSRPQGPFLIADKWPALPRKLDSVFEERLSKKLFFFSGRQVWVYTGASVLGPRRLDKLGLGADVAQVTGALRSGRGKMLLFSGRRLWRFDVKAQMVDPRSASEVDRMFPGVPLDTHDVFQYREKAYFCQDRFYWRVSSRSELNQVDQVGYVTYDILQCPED
Text: as §1, §2, §3

MMP7 = MMP7 (Homo sapiens (Human), UniProt P09237); experiment: In vitro fluorescence assay of MMP7 activity; format: biochemical
Sequence of MMP7 (P09237 95-267, species assumed): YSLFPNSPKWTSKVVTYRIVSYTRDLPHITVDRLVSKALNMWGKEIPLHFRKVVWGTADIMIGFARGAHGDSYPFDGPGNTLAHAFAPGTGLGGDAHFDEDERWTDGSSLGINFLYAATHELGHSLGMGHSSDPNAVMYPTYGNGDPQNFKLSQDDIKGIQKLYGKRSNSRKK
Text: as §1, §2, §3

MMP8 = MMP8 (Homo sapiens (Human), UniProt P22894); experiment: In vitro fluorescence assay of MMP8 activity; format: biochemical
Sequence of MMP8 (P22894 101-467, species assumed): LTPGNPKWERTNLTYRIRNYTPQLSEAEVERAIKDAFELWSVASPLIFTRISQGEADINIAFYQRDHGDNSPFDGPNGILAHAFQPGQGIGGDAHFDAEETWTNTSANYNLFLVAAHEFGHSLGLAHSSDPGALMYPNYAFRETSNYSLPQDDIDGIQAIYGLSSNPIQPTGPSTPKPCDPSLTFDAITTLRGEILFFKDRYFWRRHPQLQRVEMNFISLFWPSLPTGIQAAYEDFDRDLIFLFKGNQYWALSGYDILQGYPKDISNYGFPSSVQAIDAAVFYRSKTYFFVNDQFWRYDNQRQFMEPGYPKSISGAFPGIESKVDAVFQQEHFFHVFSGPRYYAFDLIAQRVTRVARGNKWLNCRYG
Text: as §1, §2, §3

[1] = molecular target: MMP-14 (MT1-MMP) catalytic domain (Homo sapiens (Human), UniProt P50281); experiment: In vitro fluorescence assay of MMP-14 activity; format: biochemical; conditions: read-out: MMP14 IC50
Text: as §1, §2, §3

[2] = tested on: aggrecanase-cleaved fragments of aggrecan (NITEGE) in synovial lavage; experiment: MIA injection PD model in rats; format: in vivo, Lewis rats; conditions: twice a day, rat
Method: MIA Injection PD Model in Rats
The assay as described in Swearingen et al., Osteoarthritis and Cartilage 18 (2010) 1159-1166, may be employed. MIA (Sigma, catalog #I2512, sodium salt) is prepared fresh on the day of use at 3 mg in 50 ul sterile 0.9% saline. 7-8-week-old male Lewis rats are anesthetized and injected intra-articularly with MIA into the right knee (to induce endogenous aggrecanase activity and the release of aggrecan fragments into the synovial fluid) and saline in the left (contralateral) knee on day 0. […] The synovial lavage is assayed for aggrecanase-cleaved fragments of aggrecan using the NITEGE sandwich ELISA. The amount of aggrecan fragments present in the synovial lavage is determined based on a standard curve generated with aggrecanase-digested rat aggrecan. Statistical analysis is performed using Dunnett's test. Sandwich ELISA assay: For the NITEGE ELISA, the a-NITEGE monoclonal antibody is immobilized on white high binding ELISA plates (Nunc) overnight at 4 C. Following blocking, rat synovial fluid lavage samples are added to the plate and fragments with a C-terminal NITEGE sequence are captured. The captured fragments are detected using the HRP-conjugated a-HABR monoclonal antibody. The ELISA signal is measured using the Supersignal ELISA femto maximum sensitivity substrate (Pierce) and read on a Victor luminometer. The amount of aggrecan fragments present in the sample is determined based on a standard curve generated with aggrecanase-digested rat chondrosarcoma aggrecan (850 mg/ml stock diluted in antibody dilution buffer).

MMP12 = MMP12 (Homo sapiens (Human), UniProt P39900); experiment: In vitro fluorescence assay of MMP12 activity; format: biochemical
Sequence of MMP12 (P39900 106-470, species assumed): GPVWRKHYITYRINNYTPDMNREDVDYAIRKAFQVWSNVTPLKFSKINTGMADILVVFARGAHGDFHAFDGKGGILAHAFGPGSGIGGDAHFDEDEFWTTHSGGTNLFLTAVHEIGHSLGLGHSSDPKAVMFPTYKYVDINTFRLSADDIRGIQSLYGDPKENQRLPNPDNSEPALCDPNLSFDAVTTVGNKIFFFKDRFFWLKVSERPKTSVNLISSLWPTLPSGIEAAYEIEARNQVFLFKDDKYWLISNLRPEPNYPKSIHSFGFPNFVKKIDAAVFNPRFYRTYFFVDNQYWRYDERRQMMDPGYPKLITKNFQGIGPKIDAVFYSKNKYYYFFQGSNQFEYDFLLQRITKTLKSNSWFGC
Text: as §1, §2, §3

MMP3 = MMP3 (Homo sapiens (Human), UniProt P08254); experiment: In vitro fluorescence assay of MMP3 activity; format: biochemical
Sequence of MMP3 (P08254 100-477, species assumed): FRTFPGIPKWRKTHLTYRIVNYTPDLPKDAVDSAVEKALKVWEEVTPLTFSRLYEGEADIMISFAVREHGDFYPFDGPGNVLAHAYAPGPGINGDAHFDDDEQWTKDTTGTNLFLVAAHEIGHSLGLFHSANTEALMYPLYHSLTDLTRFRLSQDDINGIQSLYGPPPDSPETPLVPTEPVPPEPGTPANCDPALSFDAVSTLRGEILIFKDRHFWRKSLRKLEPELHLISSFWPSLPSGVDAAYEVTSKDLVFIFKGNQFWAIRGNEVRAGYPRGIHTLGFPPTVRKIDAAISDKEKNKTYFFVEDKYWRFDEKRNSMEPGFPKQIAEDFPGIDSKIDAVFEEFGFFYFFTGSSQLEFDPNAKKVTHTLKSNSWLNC
Text: as §1, §2, §3

dog ADAMTS-4 [3] = molecular target: T1, dog ADAMTS-4 (Canis lupus familiaris, UniProt A0A8I3Q3A2); experiment: Dog ADAMTS-4 AlphaScreen assay; format: biochemical; conditions: purified dog ADAMTS-4 enzyme
T1 sequence (A0A8I3Q3A2 1-992): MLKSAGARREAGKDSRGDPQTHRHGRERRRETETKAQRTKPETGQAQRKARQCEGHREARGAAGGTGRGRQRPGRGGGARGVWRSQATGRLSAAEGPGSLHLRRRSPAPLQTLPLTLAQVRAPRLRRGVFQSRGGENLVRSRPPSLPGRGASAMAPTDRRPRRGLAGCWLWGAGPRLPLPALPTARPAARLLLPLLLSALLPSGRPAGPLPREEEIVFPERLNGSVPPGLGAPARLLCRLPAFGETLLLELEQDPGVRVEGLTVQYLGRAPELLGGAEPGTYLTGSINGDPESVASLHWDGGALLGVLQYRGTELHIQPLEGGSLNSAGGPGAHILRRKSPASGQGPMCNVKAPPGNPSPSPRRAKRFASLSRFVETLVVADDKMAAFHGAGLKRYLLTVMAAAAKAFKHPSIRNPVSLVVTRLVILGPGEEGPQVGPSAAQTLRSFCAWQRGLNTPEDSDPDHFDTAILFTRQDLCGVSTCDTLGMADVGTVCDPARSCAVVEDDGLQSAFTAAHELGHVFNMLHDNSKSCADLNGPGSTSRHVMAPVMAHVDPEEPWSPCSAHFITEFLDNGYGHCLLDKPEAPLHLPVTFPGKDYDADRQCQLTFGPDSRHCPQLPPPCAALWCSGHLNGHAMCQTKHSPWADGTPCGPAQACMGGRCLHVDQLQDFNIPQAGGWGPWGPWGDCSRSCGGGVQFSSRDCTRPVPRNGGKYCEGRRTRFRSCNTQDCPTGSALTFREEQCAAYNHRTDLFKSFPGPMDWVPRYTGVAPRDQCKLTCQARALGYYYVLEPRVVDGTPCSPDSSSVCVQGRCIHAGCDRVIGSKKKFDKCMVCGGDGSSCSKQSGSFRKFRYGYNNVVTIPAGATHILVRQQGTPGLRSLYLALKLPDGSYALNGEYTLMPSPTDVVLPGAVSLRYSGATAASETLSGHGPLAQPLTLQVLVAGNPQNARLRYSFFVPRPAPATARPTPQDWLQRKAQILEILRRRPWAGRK
Method: (§4) The plate is covered with aluminum foil tape and the binding is allowed to incubate overnight. The plate is then read on an AlphaScreen Fusion Alpha reader from Perkin Elmer. Data is analyzed using ActivityBase™ software (IDBS Alameda, Calif.). A similar assay is used with purified dog ADAMTS-4 enzyme.

[4] = Example 2 compound plasma concentration in osteoarthritis dogs (LC-MS/MS); format: in vivo, Beagle dogs
Text: (§5) Blood samples for baseline plasma ARGN concentrations are collected from all dogs on 30, 28, and 26 days to prior to beginning dose administration. […] The 4 age matched control dogs without OA all are assigned to the placebo treatment group.

MMP1 = MMP1 (Homo sapiens (Human), UniProt P03956); experiment: In vitro fluorescence assay of MMP1 activity; format: biochemical
Sequence of MMP1 (P03956 100-469, species assumed): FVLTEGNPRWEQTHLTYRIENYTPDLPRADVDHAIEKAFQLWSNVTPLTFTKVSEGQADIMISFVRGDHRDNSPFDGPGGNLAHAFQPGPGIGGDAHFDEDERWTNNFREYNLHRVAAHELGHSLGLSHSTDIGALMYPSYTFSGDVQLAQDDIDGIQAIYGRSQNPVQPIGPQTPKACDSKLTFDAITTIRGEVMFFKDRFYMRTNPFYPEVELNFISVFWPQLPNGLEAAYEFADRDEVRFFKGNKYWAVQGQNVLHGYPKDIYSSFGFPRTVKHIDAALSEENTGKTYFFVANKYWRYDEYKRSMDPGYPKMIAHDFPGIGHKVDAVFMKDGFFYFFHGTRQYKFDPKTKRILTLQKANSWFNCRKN
Text: as §1, §2, §3

dog ADAMTS-4 [5] = molecular target: T1, dog ADAMTS-4; experiment: Dog plasma shift AlphaScreen assay; format: biochemical; conditions: dog ADAMTS-4 in 25% dog plasma
Method: Rat and Dog Plasma Shift AlphaScreen Assay
The assay is completed in the same manner using 10 nM ADAMTS-5 instead of 2.1 nM. A similar assay is used with dog ADAMTS-4 in the presence of 25% dog plasma.

plasma ARGN = experiment: Plasma biomarker ARGN in osteoarthritis dogs; format: in vivo, Beagle dogs; conditions: OA dogs
Text: Study of the Plasma Biomarker ARGN in Osteoarthritis Dogs
The objective of this study is to determine the plasma biomarker ARGN response in osteoarthritic (OA) dogs to a compound of the invention across a range of doses following daily oral administration for 21 days. Sixteen (16) adult laboratory Beagle dogs ≧8 years of age with radiographic evidence of OA in the hip joint(s) and 4 age matched control Beagle dogs without OA are enrolled in the study.
as §5

ADAMTS-4 = ADAMTS-4 (Homo sapiens (Human), UniProt O75173); experiment: ADAMTS-4 AlphaScreen assay; format: biochemical; conditions: buffer
Sequence of ADAMTS-4 (O75173 213-837, species assumed): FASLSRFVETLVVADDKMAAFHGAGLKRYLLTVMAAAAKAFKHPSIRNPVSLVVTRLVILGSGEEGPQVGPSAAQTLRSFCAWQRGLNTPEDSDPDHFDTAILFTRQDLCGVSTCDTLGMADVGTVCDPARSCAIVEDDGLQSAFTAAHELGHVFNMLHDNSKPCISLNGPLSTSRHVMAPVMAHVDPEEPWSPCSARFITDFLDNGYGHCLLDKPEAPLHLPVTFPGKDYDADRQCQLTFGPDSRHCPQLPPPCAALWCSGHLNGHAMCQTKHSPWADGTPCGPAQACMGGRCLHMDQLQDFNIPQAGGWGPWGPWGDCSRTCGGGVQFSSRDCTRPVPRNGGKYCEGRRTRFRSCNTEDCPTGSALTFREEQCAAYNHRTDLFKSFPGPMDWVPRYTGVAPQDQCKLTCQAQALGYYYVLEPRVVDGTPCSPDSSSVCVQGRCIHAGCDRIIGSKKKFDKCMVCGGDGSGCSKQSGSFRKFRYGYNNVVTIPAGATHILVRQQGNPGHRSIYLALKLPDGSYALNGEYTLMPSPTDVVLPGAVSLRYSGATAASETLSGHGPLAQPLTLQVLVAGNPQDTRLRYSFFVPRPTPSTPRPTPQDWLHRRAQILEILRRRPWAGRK
Method: ADAMTS-4 and ADAMTS-5 AlphaScreen Assay:
as §4

Sequence of MMP-2 (P08253 110-660): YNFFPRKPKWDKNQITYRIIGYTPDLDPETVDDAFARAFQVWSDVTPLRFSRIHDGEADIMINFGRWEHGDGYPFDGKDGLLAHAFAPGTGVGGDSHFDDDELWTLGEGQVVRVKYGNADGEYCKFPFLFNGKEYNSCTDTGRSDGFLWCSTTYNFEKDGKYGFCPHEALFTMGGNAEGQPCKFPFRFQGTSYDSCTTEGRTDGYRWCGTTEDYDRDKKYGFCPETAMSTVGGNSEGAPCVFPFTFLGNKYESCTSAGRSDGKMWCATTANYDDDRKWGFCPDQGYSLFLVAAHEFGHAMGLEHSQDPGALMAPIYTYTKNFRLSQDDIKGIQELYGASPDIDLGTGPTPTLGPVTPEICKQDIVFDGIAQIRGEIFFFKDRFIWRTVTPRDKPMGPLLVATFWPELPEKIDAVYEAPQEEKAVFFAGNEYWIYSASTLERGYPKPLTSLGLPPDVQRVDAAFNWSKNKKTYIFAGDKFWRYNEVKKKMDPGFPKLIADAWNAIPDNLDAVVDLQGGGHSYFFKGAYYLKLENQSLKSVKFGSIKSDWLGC

| SMILES | IC50 (MMP-2) | IC50 (MMP13) | IC50 (MMP9) | IC50 (MMP7) | IC50 (MMP8) | IC50 [1] | IC50 (MMP12) | IC50 (MMP3) | IC50 (MMP1) | IC50 (ADAMTS-4) | further results |
| --- | --- | --- | --- | --- | --- | --- | --- | --- | --- | --- | --- |
| CC[C@H](Cc1ccc(C(F)(F)F)cc1)C(=O)NC[C@@]1(C2CC2)NC(=O)NC1=O [Example 2, (2R)—N-[[(4R)-4-cyclopropyl-2,5-dioxo-imidazolidin-4-yl]methyl]-2-[[4-(trifluoromethyl)phenyl]methyl]butanamide] | 0.704 µM | 4.19 µM | 0.439 µM | > 100 µM | < 0.0051 µM | 7.99 µM | 0.026 µM | 15.3 µM | 0.897 µM | 0.002 µM | IC50 (dog ADAMTS-4 [3]): 0.001 µM; plasma concentrations versus dosage ([4]; 0.1, 1, 10 mg/kg daily oral): increase with dosage in a sub-proportional manner; steady-state trough concentrations ([4]; daily oral dosing): rapidly achieved; IC50 (dog ADAMTS-4 [5]): 0.326 µM; mean Day 21 inhibition of plasma ARGN concentrations (plasma ARGN; 0.1 mg/kg daily oral): 33.8%; mean Day 21 inhibition of plasma ARGN concentrations (plasma ARGN; 1 mg/kg daily oral): 70.7%; mean Day 21 inhibition of plasma ARGN concentrations (plasma ARGN; 10 mg/kg daily oral): 80.3% |
| O=C1NC(=O)[C@](CNC(=O)[C@@H](Cc2ccc(C(F)(F)F)cc2)C2CC2)(C2CC2)N1 [Example 3, (2S)-2-cyclopropyl-N-[[(4R)-4-cyclopropyl-2,5-dioxo-imidazolidin-4-yl]methyl]-3-[4-(trifluoromethyl)phenyl]propanamide] | 35 µM | 47 µM | > 100 µM | > 100 µM | 0.804 µM | 50.2 µM | 0.268 µM | 99.7 µM | 39.2 µM | – | – |
| CC(C)[C@H](Cc1ccc(C(F)(F)F)cc1)C(=O)NC[C@@]1(C2CC2)NC(=O)NC1=O [Example 4, (2S)—N-[[(4R)-4-cyclopropyl-2,5-dioxo-imidazolidin-4-yl]methyl]-3-methyl-2-[[4-(trifluoromethyl)phenyl]methyl]butanamide] | > 100 µM | > 100 µM | > 100 µM | > 100 µM | 5.22 µM | > 100 µM | 3.37 µM | > 100 µM | 56.8 µM | 0.014 µM | – |

More lines, main results first:

| IC50 (MMP-2) | IC50 (MMP13) | IC50 (MMP9) | IC50 (MMP7) | IC50 (MMP8) | IC50 [1] | IC50 (MMP12) | IC50 (MMP3) | IC50 (MMP1) | IC50 (ADAMTS-4) | SMILES | further results |
| --- | --- | --- | --- | --- | --- | --- | --- | --- | --- | --- | --- |
| 1.75 µM | 1.11 µM | 12 µM | > 100 µM | 0.0179 µM | 3.89 µM | 0.009 µM | 2.85 µM | – | – | C[C@H](Cc1ccc(C(F)(F)F)cc1)C(=O)NC[C@@]1(C2CC2)NC(=O)NC1=O [Example 1, (2R)—N-[[(4R)-4-cyclopropyl-2,5-dioxo-imidazolidin-4-yl]methyl]-2-methyl-3-[4-(trifluoromethyl)phenyl]propanamide] | % Inhibition ([2]; 10 MPK oral): 41.3%; MIA (aggrecan fragments in synovial lavage of MIA knee) ([2]; 10 MPK oral): 15.87; % Inhibition ([2]; 30 MPK oral): 48.2%; MIA (aggrecan fragments in synovial lavage of MIA knee) ([2]; 30 MPK oral): 14.00; % Inhibition ([2]; 100 MPK oral): 70.2%; MIA (aggrecan fragments in synovial lavage of MIA knee) ([2]; 100 MPK oral): 8.06 |
| 4.65 µM | 4.81 µM | 7.59 µM | > 100 µM | 0.054 µM | 14.9 µM | 0.071 µM | 13.2 µM | 4.55 µM | 0.007 µM | CC(C)(Cc1ccc(C(F)(F)F)cc1)C(=O)NC[C@@]1(C2CC2)NC(=O)NC1=O [Example 5, N-[[(4R)-4-cyclopropyl-2,5-dioxoimidazolidin-4-yl]methyl]-2,2-dimethyl-3-[4-(trifluoromethyl)phenyl]propanamide] | – |
